Experimental data: paper PMC4965013, “Open Source Drug Discovery with the Malaria Box Compound Collection for Neglected Diseases and Beyond” (PLoS Pathogens, 2016)
pEC50: −log10 of the molar value.

Key:
[1] = system: P. falciparum 3D7 trophozoites; assay: Metabolomic fingerprint profiling LC-MS; assay type: cell-based, Plasmodium falciparum; parameters: UDP-D-glucose / ADP-D-glucose: unit not given here; conditions: for Acetyllysine / N-acetyl-L-ornithine / N-carbamoyl-L-aspartate / NADPH / dAMP / dCMP / dTDP / dTMP / dTTP / dihydroorotate / orotate / DLH / DLS/SDL/SID / PD / PEE / PVNF / 3-phosphoglycerate / ADP-D-glucose / ATP / CDP / D-sedoheptulose-1/7-phosphate / FAD / GMP / NAD+ / NADP+ / Octoluse Bisphosphate / Pyroglutamic acid / UDP-D-glucose / UDP-D-glucuronate / UDP-N-acetyl-glucosamine / UDP / UMP / UTP / a-ketoglutarate / citrate/isocitrate / cytidine / dATP / dGMP/AMP / fumarate / glucose-1/6-phosphate / glycerate / guanine / guanosine / hypoxanthine / indole / inosine / nicotinate / ornithine / phosphoenolpyruvate / pyruvate / ribose-phosphate / sarcosine/alanine / sn-glycerol-3-phosphate / succinate/methylmalonic acid / uridine / xanthosine: S2 Table Metabolomics; for Acetyllysine: metabolite Acetyllysine; for N-acetyl-L-ornithine: metabolite N-acetyl-L-ornithine; for N-carbamoyl-L-aspartate: metabolite N-carbamoyl-L-aspartate; for NADPH: metabolite NADPH; for dAMP: metabolite dAMP; for dCMP: metabolite dCMP; for dTDP: metabolite dTDP; for dTMP: metabolite dTMP; for dTTP: metabolite dTTP; for dihydroorotate: metabolite dihydroorotate; for orotate: metabolite orotate; for DLH: peptide DLH; for DLS/SDL/SID: peptide DLS/SDL/SID; for PD: peptide PD; for PEE: peptide PEE; for PVNF: peptide PVNF; for 3-phosphoglycerate: metabolite 3-phosphoglycerate; for ADP-D-glucose: metabolite ADP-D-glucose; for ATP: metabolite ATP; for CDP: metabolite CDP; for CDP / D-sedoheptulose-1/7-phosphate / GMP / Octoluse Bisphosphate / UDP / UMP / UTP / citrate/isocitrate / dGMP/AMP / fumarate / glucose-1/6-phosphate / glycerate / guanine / guanosine / inosine / pyruvate / sarcosine/alanine / succinate/methylmalonic acid / uridine / xanthosine: change in metabolite level after compound treatment; for D-sedoheptulose-1/7-phosphate: metabolite D-sedoheptulose-1/7-phosphate; for FAD: metabolite FAD; for GMP: metabolite GMP; for NAD+: metabolite NAD+; for NADP+: metabolite NADP+; for Octoluse Bisphosphate: metabolite Octoluse Bisphosphate; for Pyroglutamic acid: metabolite Pyroglutamic acid; for UDP-D-glucose: metabolite UDP-D-glucose; for UDP-D-glucuronate: metabolite UDP-D-glucuronate; for UDP-N-acetyl-glucosamine: metabolite UDP-N-acetyl-glucosamine; for UDP: metabolite UDP; for UMP: metabolite UMP; for UTP: metabolite UTP; for a-ketoglutarate: metabolite a-ketoglutarate; for citrate/isocitrate: metabolite citrate/isocitrate; for cytidine: metabolite cytidine; for dATP: metabolite dATP; for dGMP/AMP: metabolite dGMP/AMP; for fumarate: metabolite fumarate; for glucose-1/6-phosphate: metabolite glucose-1/6-phosphate; for glycerate: metabolite glycerate; for guanine: metabolite guanine; for guanosine: metabolite guanosine; for hypoxanthine: metabolite hypoxanthine; for indole: metabolite indole; for inosine: metabolite inosine; for 2_3-Diphosphoglyceric acid / 4-phosphopantothenate / 6-phospho-D-gluconate / FMN / IMP / Pyrophosphate / Sedoheptoluse bisphosphate / cyclic-AMP / glutathione disulfide / lactate / myo-inositol: metabolite level change after treatment; for nicotinate: metabolite nicotinate; for ornithine: metabolite ornithine; for phosphoenolpyruvate: metabolite phosphoenolpyruvate; for pyruvate: metabolite pyruvate; for ribose-phosphate: metabolite ribose-phosphate; for sarcosine/alanine: metabolite sarcosine/alanine; for sn-glycerol-3-phosphate: metabolite sn-glycerol-3-phosphate; for succinate/methylmalonic acid: metabolite succinate/methylmalonic acid; for uridine: metabolite uridine; for xanthosine: metabolite xanthosine
[2] = system: P. falciparum; assay: EC50 listed in S2 Table Metabolomics (used to set the concentration tested); assay type: cell-based; conditions: Plasmodium falciparum; EC50 used for Factor_XEC50 in metabolomics; read-out: EC50_nM

## COc1cc(OC)c(N(C)C(=O)c2cc3c(s2)-c2ccccc2S(=O)(=O)C3)cc1Cl [MMV006427]
[1]
  Acetyllysine: -3.0678
  N-acetyl-L-ornithine: -2.077
  N-carbamoyl-L-aspartate: -3.4047
  NADPH: -0.4646
  dAMP: 2.306
  dCMP: 1.395
  dTDP: 3.378
  dTMP: 4.553
  dTTP: 1.85
  dihydroorotate: -2.575
  orotate: 0.4264
  DLH: -5.058
  DLS/SDL/SID: -4.1926
  PD: -1.1837
  PEE: -3.666
  PVNF: -5.242
  3-phosphoglycerate: 0.1517
  ADP-D-glucose: -0.124
  ATP: -1.807
  CDP: 0.8052
  D-sedoheptulose-1/7-phosphate: -0.2773
  FAD: -1.0601
  GMP: -2.558
  NAD+: 0.783
  NADP+: 0.3092
  Octoluse Bisphosphate: -2.061
  Pyroglutamic acid: -0.1068
  UDP-D-glucose: 0.214
  UDP-D-glucuronate: -0.1144
  UDP-N-acetyl-glucosamine: 0.3636
  UDP: 0.3063
  UMP: 0.3348
  UTP: -0.8427
  a-ketoglutarate: -0.411
  citrate/isocitrate: 0.0762
  cytidine: 0.3423
  dATP: -0.2111
  dGMP/AMP: -0.9855
  fumarate: -0.3788
  glucose-1/6-phosphate: -0.5462
  glycerate: -0.8092
  guanine: 0.1326
  guanosine: 0.04127
  hypoxanthine: -0.06662
  indole: -0.3106
  inosine: 0.06183
  2_3-Diphosphoglyceric acid: -0.9034
  4-phosphopantothenate: -0.1012
  6-phospho-D-gluconate: -0.09619
  FMN: 0.1283
  IMP: 0.7504
  Pyrophosphate: -1.05
  Sedoheptoluse bisphosphate: -0.7918
  cyclic-AMP: -0.9224
  glutathione disulfide: -0.1859
  lactate: -1.014
  myo-inositol: -1.304
  nicotinate: 0.5771
  ornithine: 0.02692
  phosphoenolpyruvate: 0.2074
  pyruvate: -1.66
  ribose-phosphate: -0.6233
  sarcosine/alanine: -1.711
  sn-glycerol-3-phosphate: 0.334
  succinate/methylmalonic acid: 0.04426
  uridine: -0.5041
  xanthosine: -1.485
[2]
  pEC50: 7.11

## Cc1cc(NC(=O)C2c3ccccc3C(=O)N(CC(C)C)C2c2cccs2)no1 (stereo not shown) [MMV006429]
[1]
  Acetyllysine: -4.876
  N-acetyl-L-ornithine: -3.5354
  N-carbamoyl-L-aspartate: -2.585
  NADPH: 1.978
  dAMP: 2.292
  dCMP: 1.167
  dTDP: 1.627
  dTMP: 3.344
  dTTP: 1.446
  dihydroorotate: -3.6651
  orotate: -0.181
  DLH: -5.907
  DLS/SDL/SID: -4.536
  PD: -2.845
  PEE: -3.543
  PVNF: -6.513
  3-phosphoglycerate: 0.34
  ADP-D-glucose: -0.1376
  ATP: -1.344
  CDP: -0.4641
  D-sedoheptulose-1/7-phosphate: -1.187
  FAD: -1.625
  GMP: -1.884
  NAD+: -0.4933
  NADP+: -0.001455
  Octoluse Bisphosphate: -2.069
  Pyroglutamic acid: 0.2334
  UDP-D-glucose: -0.07653
  UDP-D-glucuronate: -0.002659
  UDP-N-acetyl-glucosamine: 0.06871
  UDP: -1.216
  UMP: -0.6265
  UTP: -1.299
  a-ketoglutarate: 0.2879
  citrate/isocitrate: -0.09158
  cytidine: 0.5285
  dATP: 0.0138
  dGMP/AMP: -0.6616
  fumarate: -0.1647
  glucose-1/6-phosphate: -1.368
  glycerate: -0.8344
  guanine: 0.5068
  guanosine: 1.214
  hypoxanthine: 0.09881
  indole: 0.1757
  inosine: 0.2569
  2_3-Diphosphoglyceric acid: -1.036
  4-phosphopantothenate: -0.6242
  6-phospho-D-gluconate: -0.2953
  FMN: -0.07748
  IMP: -0.08419
  Pyrophosphate: -1.06
  Sedoheptoluse bisphosphate: -0.9732
  cyclic-AMP: -0.7986
  glutathione disulfide: -0.4517
  lactate: -0.7779
  myo-inositol: -1.114
  nicotinate: 0.9425
  ornithine: -0.1056
  phosphoenolpyruvate: 0.447
  pyruvate: -2.0102
  ribose-phosphate: -0.6145
  sarcosine/alanine: -1.58
  sn-glycerol-3-phosphate: 1.267
  succinate/methylmalonic acid: 0.2625
  uridine: 1.463
  xanthosine: -1.351
[2]
  pEC50: 7.48
